Assay results published in US8951964B2, “Phenanthridine macrocyclic hepatitis C serine protease inhibitors” (priority 2010, dated 2015).

How the values were obtained:
Assay type in all cases: cell-based, HCV
[1] = tested on: genotype 1a replicon (1a-H77); assay: 1a stable replicon (luciferase reporter); details: Hepatitis C virus, Huh-7, luciferase reporter, HuH-7 cells, 5% FBS
[2] = tested on: genotype 1b replicon (1b-Con1, 1b-N); assay: 1b stable replicon (luciferase reporter); details: Hepatitis C virus, HuH-7 cells, 5% FBS
[3] = tested on: genotype 1a transient replicon (1a-H77); assay: 1a transient replicon (luciferase reporter); details: Hepatitis C virus, HuH-7 cells, 5% FBS
[4] = tested on: genotype 1b transient replicon; assay: 1b transient replicon (luciferase reporter); details: Hepatitis C virus, HuH-7 cells, 5% FBS
[5] = tested on: genotype 3a NS3 gene in transient replicon; assay: 3a transient replicon (luciferase reporter); details: Hepatitis C virus, Huh-7, read-out: 3a transient replicon (nM)

Row | SMILES | EC50 [1] [pM] | EC50 [2] [pM] | EC50 [3] [pM] | EC50 [4] [pM] | EC50 [5] [nM]
1 | Cc1cc(C(=O)N[C@H]2CCCCC/C=C\[C@@H]3C[C@@]3(C(=O)NS(=O)(=O)C3CC3)NC(=O)[C@@H]3C[C@@H](Oc4nc5cc(F)ccc5c5cc(F)ccc45)CN3C2=O)no1 | 100 to 500 | 100 to 500 | 100 to 500 | 100 to 500 | > 1
2 | Cc1cc(C(=O)N[C@H]2CCCCC/C=C\[C@@H]3C[C@@]3(C(=O)NS(=O)(=O)C3(C)CC3)NC(=O)[C@@H]3C[C@@H](Oc4nc5cc(F)ccc5c5ccccc45)CN3C2=O)no1 | 100 to 500 | 100 to 500 | < 100 | 100 to 500 | > 1
3 | Cc1cc(C(=O)N[C@H]2CCCCC/C=C\[C@@H]3C[C@@]3(C(=O)NS(=O)(=O)C3(C)CC3)NC(=O)[C@@H]3C[C@@H](Oc4nc5cc(F)ccc5c5cc(F)ccc45)CN3C2=O)no1 | 100 to 500 | 100 to 500 | < 100 | 100 to 500 | > 1
4 | Cn1ccc(C(=O)N[C@H]2CCCCC/C=C\[C@@H]3C[C@@]3(C(=O)NS(=O)(=O)C3(C)CC3)NC(=O)[C@@H]3C[C@@H](Oc4nc5ccccc5c5cc(F)ccc45)CN3C2=O)n1 | 500 to 1000 | 100 to 500 | 100 to 500 | 100 to 500 | 0.5 to 1
5 | CC1(S(=O)(=O)NC(=O)[C@@]23C[C@H]2/C=C\CCCCC[C@H](NC(=O)c2cncs2)C(=O)N2C[C@H](Oc4nc5cc(F)ccc5c5ccccc45)C[C@H]2C(=O)N3)CC1 | 500 to 1000 | 500 to 1000 | < 100 | 100 to 500 | > 1
6 | COc1ccc2c(c1)c(O[C@@H]1C[C@H]3C(=O)N[C@]4(C(=O)NS(=O)(=O)C5CC5)C[C@H]4/C=C\CCCCC[C@H](NC(=O)c4cc(C)on4)C(=O)N3C1)nc1cc(OC(F)(F)F)ccc12 | 500 to 1000 | 100 to 500 | < 100 | < 100 | 0.5 to 1
7 | Cc1cc(C(=O)N[C@H]2CCCCC/C=C\[C@@H]3C[C@@]3(C(=O)NS(=O)(=O)C3CC3)NC(=O)[C@@H]3C[C@@H](Oc4nc5cc(OC(F)(F)F)ccc5c5ccccc45)CN3C2=O)no1 | 500 to 1000 | 100 to 500 | < 100 | < 100 | 0.5 to 1
8 | Cc1cc(C(=O)N[C@H]2CCCCC/C=C\[C@@H]3C[C@@]3(C(=O)NS(=O)(=O)C3(C)CC3)NC(=O)[C@@H]3C[C@@H](Oc4nc5cc(OC(F)(F)F)ccc5c5ccccc45)CN3C2=O)no1 | 500 to 1000 | 100 to 500 | 100 to 500 | 100 to 500 | > 1
9 | Cc1cc(C(=O)N[C@H]2CCCCC/C=C\[C@@H]3C[C@@]3(C(=O)NS(=O)(=O)C3CC3)NC(=O)[C@@H]3C[C@@H](Oc4nc5ccccc5c5cccc(F)c45)CN3C2=O)no1 | 100 to 500 | 100 to 500 | < 100 | 100 to 500 | > 1
10 | CC1(S(=O)(=O)NC(=O)[C@@]23C[C@H]2/C=C\CCCCC[C@H](NC(=O)c2cscn2)C(=O)N2C[C@H](Oc4nc5cc(F)ccc5c5cc(F)ccc45)C[C@H]2C(=O)N3)CC1 | 500 to 1000 | 100 to 500 | < 100 | 100 to 500 | > 1
11 | CC1(S(=O)(=O)NC(=O)[C@@]23C[C@H]2/C=C\CCCCC[C@H](NC(=O)c2cncs2)C(=O)N2C[C@H](Oc4nc5cc(F)ccc5c5cc(F)ccc45)C[C@H]2C(=O)N3)CC1 | > 1000 | 100 to 500 | < 100 | 100 to 500 | > 1
12 | CC1(S(=O)(=O)NC(=O)[C@@]23C[C@H]2/C=C\CCCCC[C@H](NC(=O)c2cscn2)C(=O)N2C[C@H](Oc4nc5ccccc5c5cc(F)ccc45)C[C@H]2C(=O)N3)CC1 | 500 to 1000 | 100 to 500 | 100 to 500 | 100 to 500 | > 1
13 | CC1(S(=O)(=O)NC(=O)[C@@]23C[C@H]2/C=C\CCCCC[C@H](NC(=O)c2cncs2)C(=O)N2C[C@H](Oc4nc5ccccc5c5cc(F)ccc45)C[C@H]2C(=O)N3)CC1 | 500 to 1000 | 100 to 500 | < 100 | 100 to 500 | > 1
14 | CC1(S(=O)(=O)NC(=O)[C@@]23C[C@H]2/C=C\CCCCC[C@H](NC(=O)c2ccns2)C(=O)N2C[C@H](Oc4nc5cc(F)ccc5c5ccccc45)C[C@H]2C(=O)N3)CC1 | 500 to 1000 | 100 to 500 | < 100 | 100 to 500 | > 1
15 | CC1(S(=O)(=O)NC(=O)[C@@]23C[C@H]2/C=C\CCCCC[C@H](NC(=O)c2ccon2)C(=O)N2C[C@H](Oc4nc5cc(F)ccc5c5ccccc45)C[C@H]2C(=O)N3)CC1 | 100 to 500 | 100 to 500 | < 100 | 100 to 500 | 0.5 to 1
16 | CC1(S(=O)(=O)NC(=O)[C@@]23C[C@H]2/C=C\CCCCC[C@H](NC(=O)[C@@H](O)C(F)(F)F)C(=O)N2C[C@H](Oc4nc5cc(F)ccc5c5ccccc45)C[C@H]2C(=O)N3)CC1 | 500 to 1000 | 100 to 500 | < 100 | 100 to 500 | > 1
17 | Cc1ccc(C(=O)N[C@H]2CCCCC/C=C\[C@@H]3C[C@@]3(C(=O)NS(=O)(=O)C3(C)CC3)NC(=O)[C@@H]3C[C@@H](Oc4nc5cc(F)ccc5c5ccccc45)CN3C2=O)o1 | 500 to 1000 | 100 to 500 | 100 to 500 | 100 to 500 | < 1
18 | COc1ccc2c(c1)nc(O[C@@H]1C[C@H]3C(=O)N[C@]4(C(=O)NS(=O)(=O)C5(C)CC5)C[C@H]4/C=C\CCCCC[C@H](NC(=O)c4cc(C)on4)C(=O)N3C1)c1ccccc12 | 100 to 500 | 100 to 500 | < 100 | 100 to 500 | > 1
19 | Cc1ccc(C(=O)N[C@H]2CCCCC/C=C\[C@@H]3C[C@@]3(C(=O)NS(=O)(=O)C3(C)CC3)NC(=O)[C@@H]3C[C@@H](Oc4nc5cc(F)ccc5c5ccccc45)CN3C2=O)s1 | 500 to 1000 | 100 to 500 | 100 to 500 | 100 to 500 | < 1
20 | CC1(S(=O)(=O)NC(=O)[C@@]23C[C@H]2/C=C\CCCCC[C@H](NC(=O)c2ccc(F)s2)C(=O)N2C[C@H](Oc4nc5cc(F)ccc5c5ccccc45)C[C@H]2C(=O)N3)CC1 | 500 to 1000 | 100 to 500 | < 100 | 100 to 500 | > 1
21 | CC1(S(=O)(=O)NC(=O)[C@@]23C[C@H]2/C=C\CCCCC[C@H](NC(=O)c2ccon2)C(=O)N2C[C@H](Oc4nc5cc(F)ccc5c5cc(F)ccc45)C[C@H]2C(=O)N3)CC1 | 100 to 500 | 100 to 500 | < 100 | < 100 | > 1
22 | O=C(N[C@H]1CCCCC/C=C\[C@@H]2C[C@@]2(C(=O)NS(=O)(=O)C2CC2)NC(=O)[C@@H]2C[C@@H](Oc3nc4ccccc4c4cc(F)ccc34)CN2C1=O)c1cncs1 | 500 to 1000 | 100 to 500 | 100 to 500 | 100 to 500 | > 1
23 | COc1ccc2c(c1)nc(O[C@@H]1C[C@H]3C(=O)N[C@]4(C(=O)NS(=O)(=O)C5CC5)C[C@H]4/C=C\CCCCC[C@H](NC(=O)c4ccn(C)n4)C(=O)N3C1)c1ccc(F)cc12 | 100 to 500 | 100 to 500 | 100 to 500 | 500 to 1000 | 0.5 to 1
